Patent US11351138B2, “Composition for use in the treatment of epilepsy” (VITAFLO INTERNATIONAL LTD, priority 2017, dated 2022)
Entries after “also recorded” stand apart in the source; their conditions may differ.

Assays:
[1] = system: SH-SY5Y cells; assay: CPT1 inhibition assay (etomoxir), oxidation rates in SH-SY5Y cells; assay type: cell-based; conditions: for Oxidation rate +Etomoxir / Oxidation rate −Etomoxir: 250 μM substrate, mean±SEM; for Oxidation rate +Etomoxir: 50 μM etomoxir; for Oxidation rate −Etomoxir: without etomoxir
Procedure: C16:BSA complex (5:1 molar ratio fatty acid:BSA). […] Both solutions were aliquoted and stored at −20° C. until further use.
A stock solution of 50 mM etomoxir was prepared in sterile cell culture grade water and stored in aliquots at −20° C. On day 5 of culture, growth medium was replaced with 2 ml DMEM formula containing 3 mM D-glucose and 10% FBS. Cells were incubated with or without the presence of 50 μM etomoxir, for 20 h at 37° C. and 5% CO2. […] C8 or [U-^13C] C16:BSA, with 50 μM etomoxir also added to previously exposed cells. Wells were then sealed with heavy mineral oil, with cells incubated and media sampled as previously described.
Samples were thawed at room temperature and 100 μl 1M hydrochloric acid was injected through the septum into each vial to release CO2 from the media. Vials were centrifuged for 30 seconds at 500×g. Samples were then analysed on a GasBench II coupled to a Thermo Delta-XP isotope-ratio mass spectrometer.

[2] = target: T1, GluA2/3 AMPA receptors (Homo sapiens, UniProt P42262+P42263); assay: AMPA receptor (GluA2/3) currents in Xenopus oocytes, two-electrode voltage clamp; assay type: cell-based; conditions: GluA2/3 in oocytes, 100 uM glutamate, total medium chain fatty acid content 1 mM
T1 construct: expressed in transfected cells; host or cells: Xenopus laevis oocytes injected with in vitro transcribed cRNA (GluA2 and GluA3, nominal 1:1)
T1 sequence (P42262 25-883 isoform P42262-2 limits assumed): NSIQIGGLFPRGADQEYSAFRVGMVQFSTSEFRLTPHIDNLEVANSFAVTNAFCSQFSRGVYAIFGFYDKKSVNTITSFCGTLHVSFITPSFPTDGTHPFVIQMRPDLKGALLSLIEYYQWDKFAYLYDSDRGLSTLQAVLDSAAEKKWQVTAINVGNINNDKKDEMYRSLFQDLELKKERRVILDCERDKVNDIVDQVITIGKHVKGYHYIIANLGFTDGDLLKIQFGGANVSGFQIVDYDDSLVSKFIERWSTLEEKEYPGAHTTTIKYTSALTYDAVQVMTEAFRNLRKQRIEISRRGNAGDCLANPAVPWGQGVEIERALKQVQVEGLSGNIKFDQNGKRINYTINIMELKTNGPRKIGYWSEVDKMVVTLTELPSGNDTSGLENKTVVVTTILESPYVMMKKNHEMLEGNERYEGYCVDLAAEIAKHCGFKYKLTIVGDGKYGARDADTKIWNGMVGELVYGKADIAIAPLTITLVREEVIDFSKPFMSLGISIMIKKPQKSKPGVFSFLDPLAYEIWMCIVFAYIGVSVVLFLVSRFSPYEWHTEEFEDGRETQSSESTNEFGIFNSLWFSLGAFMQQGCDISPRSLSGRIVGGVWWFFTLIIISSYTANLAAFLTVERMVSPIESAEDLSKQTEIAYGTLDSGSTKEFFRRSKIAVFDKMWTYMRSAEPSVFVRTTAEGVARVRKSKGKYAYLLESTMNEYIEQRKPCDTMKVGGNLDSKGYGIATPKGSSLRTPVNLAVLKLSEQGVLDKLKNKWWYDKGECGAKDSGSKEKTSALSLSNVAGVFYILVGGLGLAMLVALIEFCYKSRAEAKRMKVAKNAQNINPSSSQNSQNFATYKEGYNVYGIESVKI
T1 sequence (P42263 29-894 isoform P42263-2 limits assumed): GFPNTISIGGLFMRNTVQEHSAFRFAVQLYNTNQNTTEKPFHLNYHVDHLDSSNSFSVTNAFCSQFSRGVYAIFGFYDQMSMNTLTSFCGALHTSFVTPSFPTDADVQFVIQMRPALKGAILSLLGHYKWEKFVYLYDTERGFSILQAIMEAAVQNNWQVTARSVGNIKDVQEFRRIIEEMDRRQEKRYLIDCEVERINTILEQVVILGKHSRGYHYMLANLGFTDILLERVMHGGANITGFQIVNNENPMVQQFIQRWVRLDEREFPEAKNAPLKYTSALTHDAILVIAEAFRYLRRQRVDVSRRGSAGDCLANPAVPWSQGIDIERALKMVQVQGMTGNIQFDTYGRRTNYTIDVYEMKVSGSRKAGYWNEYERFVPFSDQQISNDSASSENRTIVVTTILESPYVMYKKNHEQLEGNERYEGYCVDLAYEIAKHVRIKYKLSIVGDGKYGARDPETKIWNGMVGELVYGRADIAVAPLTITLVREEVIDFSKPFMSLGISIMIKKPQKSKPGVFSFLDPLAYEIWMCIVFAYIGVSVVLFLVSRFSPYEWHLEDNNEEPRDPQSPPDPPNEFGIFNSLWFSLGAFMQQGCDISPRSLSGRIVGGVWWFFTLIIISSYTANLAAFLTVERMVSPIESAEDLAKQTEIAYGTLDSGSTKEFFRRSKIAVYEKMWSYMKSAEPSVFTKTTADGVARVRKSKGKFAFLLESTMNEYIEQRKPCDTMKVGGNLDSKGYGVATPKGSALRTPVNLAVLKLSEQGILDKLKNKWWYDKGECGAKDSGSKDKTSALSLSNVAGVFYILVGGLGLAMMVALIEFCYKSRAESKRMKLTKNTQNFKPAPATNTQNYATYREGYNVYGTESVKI
Procedure: The AMPA receptor (flip isoform) cDNAs inserted in a SP6 polymerase expression vector (pSP6T) were a gift from Prof Ralf Schoepfer (NPP, UCL). RNA was transcribed in vitro from Miu I linearised transcripts using the SP6 Promega RiboMax RNA synthesis kit (Madison, Wis.) according to manufacturers protocols except for the addition of 0.75 mM capping nucleotide m7G(5′)ppp(5′)G (Promega, Madison, Wis.) and 1.6 mM GTP. cRNA concentrations and integrity were estimated by the intensity of fluorescence bands in RNA denaturating gels. AMPA receptor cRNAs were mixed in a nominal 1:1 ratio and approximately 5 ng was injected per oocyte.
Xenopus laevis oocytes were purchased from the European Xenopus Resource Centre, University of Portsmouth. Stage V to VI oocytes were mechanically dissected and then subjected to gentle shaking for approximately 30-50 min at room temperature with modified Barth's solution (in mM): NaCl 88, KCl 1, NaHCO32.4, MgCb 0.82, CaCl2) 0.77, Tris-Cl 15, adjusted to pH 7.4 with NaOH (Sigma-Aldrich, UK), supplemented with 50 IU/ml penicillin and 50 μg/ml streptomycin (Invitrogen, UK) and 50 μg/ml tetracycline (Sigma-Aldrich, UK) and 1% collagenase (type 1A). […]

[3] = system: SH-SY5Y cells; assay type: cell-based; conditions: human, 6 h, 250 μM
Procedure: SH-SY5Y cells were utilised between passages 20-24 for all experimental procedures. Cells were cultured in 1:1 Dulbecco's Modified Eagle's Medium (DMEM)/F12 media, containing 17.5 mM glucose and supplemented with 100 ml/L heat-inactivated foetal bovine serum (FBS) and 10 ml/L 200 mM L-glutamine. All cells were maintained in a humidified atmosphere at 37° C. and 5% CO2. Cells were sub-cultured by washing with 10 ml/flask Mg^2+1c a ^2+-free Dulbecco's phosphate-buffered saline (DPBS), lifted with 2 ml 0.25% trypsin-EDTA and suspended in 8 ml culture medium to inactivate the trypsin. The cell suspension was transferred to a falcon tube and centrifuged for 4 minutes at 500×g. The supernatant was removed and cells suspended in a known volume of fresh culture medium. Cells were counted using the Trypan Blue exclusion test for viability. A known volume of the cell suspension was mixed 1:1 with 0.4% Trypan Blue solution and counted with a Bio-Rad TC20™ Automated Cell Counter (Hemel Hempstead, UK). […]
Samples were thawed at room temperature and 100 μl 1M hydrochloric acid was injected through the septum into each vial to release CO2 from the media. […] Samples were then analysed on a GasBench II coupled to a Thermo Delta-XP isotope-ratio mass spectrometer. […]

[4] = system: SH-SY5Y cells; assay: C10 and C8 co-incubation, C10 oxidation in SH-SY5Y cells; assay type: cell-based; conditions: 250 μM [1-13C]C10 plus 62.5 μM unlabelled C8
Procedure: The effects of co-incubating C10 and C8 on C10 oxidation in SH-SY5Y cells were also explored. Additional stock solutions of 25 mM C8 and 100 mM [1-^13C]C10 were prepared in DMSO, sterile-filtered and stored in aliquots at −20° C. Cells were cultured and incubated for 20 h in 10% FBS-supplemented DMEM media containing 3 mM D-glucose, as previously described. Media was then removed and cells washed. Media was then replaced with 3 ml DMEM containing either 3 mM [U-^13C]glucose and vehicle control DMSO, or 3 mM unlabelled D-glucose. In each D-glucose-supplemented well, cells were treated with either a final concentration of 250 μM [1-^13C] C10, or 250 μM [1-^13C]C10 plus 62.5 μM C8, at a fixed total volume. Wells were then sealed with heavy mineral oil, cells incubated and media sampled as previously outlined.
Samples were thawed at room temperature and 100 μl 1M hydrochloric acid was injected through the septum into each vial to release CO2 from the media. Vials were centrifuged for 30 seconds at 500×g. Samples were then analysed on a GasBench II coupled to a Thermo Delta-XP isotope-ratio mass spectrometer. Ten repeat injections were carried out per sample, with d^13C/^12C ratios measured against Vienna Pee Dee Belemnite (VPDB) using a calibrated CO2 reference gas. ^13CO2/^12CO2 ratios were converted to mole percent excess using absolute molar ratio of ^13C to ^12C (0.0111796) in VPDB. […]

[5] = target: T1, GluA2/3 AMPA receptors; conditions: Chang et al., Brain 2016; cited from earlier work
[6] = cited from earlier work
[7] = animal models; cited from earlier work
[8] = clinically relevant concentrations, in vitro and in vivo; cited from earlier work
[9] = system: SH-SY5Y cells; assay: Cell viability, Trypan Blue exclusion test; assay type: cell-based; conditions: 50 μM etomoxir, 20 h + 6 h; data not shown
Procedure: Cells were incubated for 20 h at 37° C. and 5% CO2 with 50 μM etomoxir in DMEM media supplemented with 10% FBS, and then a further 6 h at 37° C. with 50 μM etomoxir in DMEM media without FBS. Cells were then lifted from wells with 1 ml 0.25% trypsin-EDTA, suspended in 4 ml culture medium and centrifuged for 4 minutes at 500×g. Supernatant was removed and cells suspended in 1 ml of fresh culture medium. Viability of cells was then tested using the Trypan Blue exclusion test.

Row | Compound | Oxidation rate +Etomoxir [1] | Oxidation rate −Etomoxir [1] | reduction of oxidation in the presence of etomoxir ([1]; human, 6 h, 250 μM) | effect on AMPA receptors / AMPA receptor currents [5] | concentration in peripheral blood (average) [6] | concentration in peripheral blood (range) [6] | anti-seizure effects [8] | other results
1 | CCCCCCC[13C](=O)O [[1-^13C]C8, [1^13C]octanoic acid] | 0.75 ± 0.06 nmol/h | 1.14 ± 0.11 nmol/h |  |  |  |  |  | 
2 | [13CH3][13CH2][13CH2][13CH2][13CH2][13CH2][13CH2][13CH2][13CH2][13CH2][13CH2][13CH2][13CH2][13CH2][13CH2][13C](=O)O [[U-^13C]C16, [U-^13C]palmitic acid, reference compound] | 0.002 ± 0.003 nmol/h | 0.22 ± 0.05 nmol/h |  |  |  |  |  | reduction of oxidation in the presence of etomoxir ([1]; 50 μM etomoxir (CPT1 inhibition)): 99%
3 | CCCCCCCCCC(=O)O [decanoic acid, Decanoic acid] |  |  | 95% | inhibits AMPA receptors | 157 µM | 87 to 552 µM | acute antiseizure effects; also recorded: has anti-seizure effects | inhibition of AMPA receptor currents by decanoic acid:octanoic acid ratios [2]: no increase in AMPA receptor inhibition; C10 oxidation lower than that of C8 by [3]: approximately 80%; impairment of oxidation rate of C10 by C8 addition [4]: 29%; ratio in blood plasma to brain [7]: around 0.7
4 | CCOC(=O)[C@@]1(CCCCCCOc2ccc(Cl)cc2)CO1 [etomoxir] |  |  |  |  |  |  |  | effect on viability of SH-SY5Y cells [9]: no effect on viability
5 | CCCCCCCC(=O)O [octanoic acid, Octanoic acid] |  |  | 34% | no effect on AMPA receptor currents | around 306 μM | 104 to 859 µM | not | 
